Measurements reported in article PMC9921301, “Design, Synthesis, and Antiproliferative Activity of New 5-Chloro-indole-2-carboxylate and Pyrrolo[3,4-b]indol-3-one Derivatives as Potent Inhibitors of EGFR^T790M/BRAF^V600E Pathways” (Molecules, 2023).
Where two headings read alike, the source gives them in different places.

Legend:
[1] = test system: HT-29 (colon cancer cell line); assay: Antiproliferative assay, HT-29; type: cell-based; conditions: Homo sapiens, read-out: Antiproliferative Activity IC50 ± SEM HT-29
Procedure: (§1) For ease of manipulation, the average (GI50) versus the four cancer cell lines was used.
(§2) To investigate the antiproliferative potential of 3a–e, 4a–c, and 5a–c, the MTT assay was carried out using various cell lines in accordance with previously reported procedures. See Appendix SA (Supplementary Materials). […]
(§3) ethylenediamine tetra acetic acid (EDTA) was used to passage the cells after every 2-3 days. 96-well flat-bottomed cell culture plates were used to seed the cells at a density of 10^4 cells mL-1. The medium was aspirated from all the wells of culture plates after 24 h followed by the addition of synthesized compounds (in 200 μL medium to yield a final concentration of 0.1% (v/v) dimethylsulfoxide) into individual wells of the plates.
(§4) Four wells were designated to a single compound. The plates were allowed to incubate at 37°C for 96 h. Afterwards, the medium was aspirated and 3-[4,5-dimethylthiazol-2-yl]-2,5-diphenyltetrazolium bromide (MTT) (0.4 mg/mL) in medium was added to each well and subsequently incubated for 3 h. The medium was aspirated and 150 μL dimethyl sulfoxide (DMSO) was added to each well. The plates were vortexed followed by the measurement of absorbance at 540 nm on a microplate reader. The results were presented as inhibition (%) of proliferation in contrast to controls comprising 0.1% 4.2.1.2. Assay for antiproliferative effect
(§5) To explore the antiproliferative potential of compounds propidium iodide fluorescence assay was performed using different cell lines such as Panc-1 (pancreas cancer cell […]
(§6) (epithelial cancer cell line), respectively. To calculate the total nuclear DNA, a fluorescent dye (propidium iodide, PI) is used which can attach to the DNA, thus offering a quick and precise technique. PI cannot pass through the cell membrane and its signal intensity can be considered as directly proportional to quantity of cellular
(§7) DNA. Cells whose cell membranes are damaged or have changed permeability are counted as dead ones. The assay was performed by seeding the cells of different cell lines at a density of 3000-7500 cells/well (in200μl medium) in culture plates followed […]
(§8) The medium was removed; the compounds were added to the plates at 10 μM concentrations (in 0.1% DMSO) in triplicates, followed by incubation for 48h. DMSO (0.1%) was used as control. After incubation, medium was removed followed by the addition of PI (25 μl, 50μg/mL in water/medium) to each well of the plates. At -80 °C, the plates were allowed to freeze for 24 h, followed by thawing at 25 °C. A fluorometer (Polar-Star BMG Tech) was used to record the readings at excitation and emission wavelengths of 530 and 620 nm for each well. The percentage cytotoxicity of compounds was calculated using the following formula:
(§9) Where ATC= Absorbance of treated cells and AC= Absorbance of control. […]
(§10) was used as positive control in the assay. […]

[2] = test system: A-549 (epithelial cancer cell line); assay: Antiproliferative assay, A-549; type: cell-based; conditions: Homo sapiens, A549; read-out: Antiproliferative Activity IC50 ± SEM A-549
Procedure: as §1, §2, §3, §4, §5, §6, §7, §8, §9, §10

[3] = test system: MCF-7 (breast cancer cell line); assay: Antiproliferative assay, MCF-7; type: cell-based; conditions: Homo sapiens, MCF7; read-out: Antiproliferative Activity IC50 ± SEM MCF-7
Procedure: as §1, §2, §3, §4, §5, §6, §7, §8, §9, §10

[4] = test system: four human cancer cell lines (Panc-1, MCF-7, HT-29, A-549); assay: Antiproliferative assay, average (GI50) versus the four cancer cell lines; type: cell-based; conditions: Homo sapiens; average versus the four cancer cell lines
Procedure: as §1, §2, §3, §4, §5, §6, §7, §8, §9, §10

[5] = target: T1, BRAF^V600E (Mus musculus, UniProt P28028, V585E); assay: V600E mutant BRAF kinase assay; type: biochemical; conditions: read-out: BRAF^V600E Inhibition IC50 ± SEM
T1 construct: Mouse full-length GST-tagged; GST; purchased Invitrogen PV3849
T1 sequence (P28028 whole entry V585E): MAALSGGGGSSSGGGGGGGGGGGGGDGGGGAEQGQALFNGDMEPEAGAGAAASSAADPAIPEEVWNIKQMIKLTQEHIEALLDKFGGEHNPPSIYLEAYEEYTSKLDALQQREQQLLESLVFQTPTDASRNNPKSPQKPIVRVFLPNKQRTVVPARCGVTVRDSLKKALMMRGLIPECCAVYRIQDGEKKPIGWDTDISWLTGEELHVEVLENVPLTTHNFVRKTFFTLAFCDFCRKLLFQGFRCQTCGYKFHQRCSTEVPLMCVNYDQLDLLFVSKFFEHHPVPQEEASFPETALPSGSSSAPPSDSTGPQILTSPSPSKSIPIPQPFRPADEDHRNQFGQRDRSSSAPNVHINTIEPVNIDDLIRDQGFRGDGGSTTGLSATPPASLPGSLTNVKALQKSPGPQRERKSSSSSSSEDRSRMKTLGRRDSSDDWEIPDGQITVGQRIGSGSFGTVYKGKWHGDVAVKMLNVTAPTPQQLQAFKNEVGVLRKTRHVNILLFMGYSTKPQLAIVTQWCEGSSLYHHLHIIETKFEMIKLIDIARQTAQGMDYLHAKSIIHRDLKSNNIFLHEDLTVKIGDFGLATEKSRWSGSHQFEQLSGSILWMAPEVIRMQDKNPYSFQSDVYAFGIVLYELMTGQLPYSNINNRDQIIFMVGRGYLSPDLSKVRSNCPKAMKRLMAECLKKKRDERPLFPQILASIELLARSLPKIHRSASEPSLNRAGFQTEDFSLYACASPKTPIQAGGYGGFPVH
Procedure: V600E mutant BRAF kinase assay was performed to investigate the activity of […]
Mouse full-length GST-tagged
BRAFV600E (7.5 ng, Invitrogen, PV3849) was pre -incubated with drug (1 µL) and assay dilution buffer (4 µL) for 6 0 min at 25 °C. In assay dilution buffer, a solution (5 µL) containing MgCl2 (30 mM), ATP (200 µM), recombinant human full length (200 ng) […] N-terminal His-tagged MEK1 (Invitrogen) was added to start the assay, after incubation for 25 min at 25 °C. The assay was stopped using 5X protein denaturing buffer (LDS) solution (5 µL). To further denature the protein, heat (70° C) was applied […]
electrophoresis (at 200 V). 10 µL of each reaction was loaded into the precast plates and electrophoresis was allowed to proceed. After completion of electrophoresis, the front part of the precast gel plate (holding hot ATP) was cut and afterwards cast -off.
The dried gel was developed using a phosphor screen. […]
Computerized Prism 5 program was used to statistically analyzed data using one-way ANOVA test followed by Tukey’s as post ANOVA for multiple comparison at P ≤.05.
Data were presented as mean ± SEM.

[6] = test system: Panc-1 (pancreatic cancer cell line); assay: Antiproliferative assay, Panc-1; type: cell-based; conditions: Homo sapiens, read-out: Antiproliferative Activity IC50 ± SEM Panc-1
Procedure: as §1, §2, §3, §4, §5, §6, §7, §8, §9, §10

[7] = target: T2, EGFR^T790M (Homo sapiens, UniProt P00533, T790M); assay: EGFR^T790M inhibitory assay (HTRF KinEASE-TK); type: biochemical; conditions: for IC50: HTRF KinEASE-TK, read-out: EGFR^T790M Inhibition IC50 ± SEM
T2 construct: purchased Carna Bioscience
T2 sequence (P00533 25-1210 T790M): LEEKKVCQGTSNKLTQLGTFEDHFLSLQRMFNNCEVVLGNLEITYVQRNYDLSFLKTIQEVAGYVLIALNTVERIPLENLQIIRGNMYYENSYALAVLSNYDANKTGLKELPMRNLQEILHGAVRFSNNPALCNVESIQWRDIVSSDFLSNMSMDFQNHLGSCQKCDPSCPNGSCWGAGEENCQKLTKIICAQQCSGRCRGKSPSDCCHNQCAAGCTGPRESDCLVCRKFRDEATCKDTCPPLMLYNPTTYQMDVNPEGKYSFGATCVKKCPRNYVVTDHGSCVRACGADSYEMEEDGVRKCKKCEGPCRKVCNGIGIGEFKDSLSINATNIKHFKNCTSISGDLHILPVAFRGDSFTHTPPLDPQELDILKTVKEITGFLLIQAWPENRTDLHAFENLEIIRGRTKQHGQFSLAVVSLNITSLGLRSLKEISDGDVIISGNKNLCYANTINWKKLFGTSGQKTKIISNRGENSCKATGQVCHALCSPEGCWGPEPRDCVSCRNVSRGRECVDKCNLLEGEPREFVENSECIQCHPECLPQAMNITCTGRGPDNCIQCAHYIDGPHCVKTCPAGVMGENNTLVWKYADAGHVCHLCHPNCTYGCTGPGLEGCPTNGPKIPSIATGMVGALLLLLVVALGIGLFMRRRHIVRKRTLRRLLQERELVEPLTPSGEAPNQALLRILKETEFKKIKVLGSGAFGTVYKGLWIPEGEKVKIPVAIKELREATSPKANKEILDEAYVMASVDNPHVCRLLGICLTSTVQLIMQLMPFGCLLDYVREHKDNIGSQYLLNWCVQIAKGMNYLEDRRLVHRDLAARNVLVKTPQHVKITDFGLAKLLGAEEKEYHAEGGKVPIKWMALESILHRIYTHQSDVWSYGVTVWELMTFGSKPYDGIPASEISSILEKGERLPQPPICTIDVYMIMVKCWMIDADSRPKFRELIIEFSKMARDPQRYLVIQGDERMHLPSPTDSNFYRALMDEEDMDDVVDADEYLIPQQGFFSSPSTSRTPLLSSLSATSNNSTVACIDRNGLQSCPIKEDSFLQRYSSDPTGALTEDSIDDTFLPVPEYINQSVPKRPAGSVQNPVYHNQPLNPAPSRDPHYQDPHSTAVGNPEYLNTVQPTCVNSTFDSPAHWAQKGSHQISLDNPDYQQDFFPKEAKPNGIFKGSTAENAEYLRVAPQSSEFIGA
Procedure: Osimertinib served as the positive control.
EGFRT790M inhibitory assay
The EGFR protein (EGFRT790M) was purchased from Carna Bioscience. The HTRF KinEASE-TK kit (Cat#62TK0PEB) was from Cisbio. All the other chemicals were […]
low volume, black, NBS), using Cisbio HTRF KinEASE -TK kit. The assay buffer contained 50 mM HEPES (Ph 7.0), 0.02% NaN3, 0.01% BSA, 0.1 mM Orthovanadate, […]
EGFR kinases was first incubated with compounds for 2 h respectively, then ATP/Peptide substrate mixture was added to initiate the reaction. After 30 min reaction at room temperature, the detection reagents were added. The TR-FRET signal was measured on PerkinElmer Envision using […]
The data was analyzed using Graph
Pad Prism (Version 6.0) software after three parallel experiments. […]

[8] = test system: LOX-IMVI melanoma cell line; assay: LOX-IMVI melanoma cell line cytotoxicity assay (MTT); type: cell-based; conditions: Homo sapiens, 5-dose concentrations, read-out: LOX-IMVI Melanoma IC50 ± SEM
Procedure: The IC50 values of the test compounds were determined at 5-dose concentrations, with staurosporine serving as a control.
The anticancer activity of the synthesized derivatives was determined using the MTT cytotoxicity assay on LOX-IMVI melanoma cell line. See Appendix SA (Supplementary Materials).

[9] = target: T3, EGFR (Homo sapiens, UniProt P00533); assay: EGFR-TK inhibitory assay
T3 sequence (P00533 669-1210): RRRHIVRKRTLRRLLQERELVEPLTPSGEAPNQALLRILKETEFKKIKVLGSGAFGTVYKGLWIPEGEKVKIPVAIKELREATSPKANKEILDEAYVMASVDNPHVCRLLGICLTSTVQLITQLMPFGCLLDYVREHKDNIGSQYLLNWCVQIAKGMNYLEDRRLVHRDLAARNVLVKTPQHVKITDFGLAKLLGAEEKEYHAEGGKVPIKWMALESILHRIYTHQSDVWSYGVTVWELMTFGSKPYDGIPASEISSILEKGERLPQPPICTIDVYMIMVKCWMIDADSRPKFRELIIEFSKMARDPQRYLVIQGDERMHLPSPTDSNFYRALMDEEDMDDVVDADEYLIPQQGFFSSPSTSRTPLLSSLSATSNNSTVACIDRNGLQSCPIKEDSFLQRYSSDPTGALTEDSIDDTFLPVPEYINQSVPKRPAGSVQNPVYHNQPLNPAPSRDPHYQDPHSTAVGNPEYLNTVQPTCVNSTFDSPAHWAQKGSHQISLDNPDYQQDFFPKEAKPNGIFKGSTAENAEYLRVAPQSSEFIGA

[10] = Cell viability assay (MTT) on normal mammary epithelial cells; type: cell-based; conditions: human, MCF-10A normal mammary gland epithelial cells, four days of incubation
Procedure: The viability test was performed on a normal human mammary gland epithelial cell line (MCF-10A). The MTT test was used to assess the viability of compounds 3a–e, 4a–c, and 5a–c.
The MTT assay was used to determine how the synthesized compounds affected the viability of mammary epithelial cells (MCF-10A). See Appendix SA (Supplementary Materials). […]
4.2. Biological evaluation
4.2.1. Cytotoxic activity using MTT Assay and evaluation of IC50
MTT assay was performed to investigate the effect of the synthesized compounds on mammary epithelial cells (MCF-10A). The cells were propagated in medium consisting of Ham's F-12 medium/ Dulbecco's modified Eagle's medium (DMEM) (1:1) supplemented with 10% foetal calf serum, 2 mM glutamine, insulin (10 μg/mL), hydrocortisone (500 ng/mL) and epidermal growth factor (20 ng/mL). Trypsin ethylenediamine tetra acetic acid (EDTA) was used to passage the cells after every 2-3 days. 96-well flat-bottomed cell culture plates were used to seed the cells at a density of 10^4 cells mL-1. The medium was aspirated from all the wells of culture plates after 24 h followed by the addition of synthesized compounds (in 200 μL medium to yield a final concentration of 0.1% (v/v) dimethylsulfoxide) into individual wells of the plates.
as §4, with “The results were presented as inhibition (%) of proliferation in contrast to controls comprising 0.1% 4.2.1.2. Assay for antiproliferative effect” left out

[11] = test system: EGFR^L858R; parameters: method as in PMID 29758406; conditions: cited from earlier work
[12] = test system: c-MET; parameters: method as in PMID 29758406; conditions: cited from earlier work
[13] = target: T2, EGFR^T790M; conditions: cited from earlier work
[14] = test system: BRAF^V600E; conditions: cited from earlier work
[15] = target: T3, EGFR; parameters: CD, amino acids 645–1186); His6 (N); made in house; host or cells: Sf-9 insect cells (baculovirus; pBlueBacHis2B / pFASTBacHTc; conditions: cited from earlier work
[16] = test system: four cancer cell lines; parameters: method as in PMID 32920363; conditions: read-out: GI50 against four cancer cell lines; cited from earlier work

CCOC(=O)c1[nH]c2ccc(Cl)cc2c1CNCCc1ccc(N2CCCC2)cc1 [Compound 3b, Ethyl 5-chloro-3-((4-(pyrrolidin-1-yl)phenethylamino)methyl)-1H-indole-2-carboxylate]
IC50 [1]: 32 ± 3 nM
IC50 [2]: 30 ± 3 nM
IC50 [3]: 32 ± 3 nM
GI50 [4]: 31 nM
IC50 [5]: 39 ± 3 nM
IC50 [6]: 30 ± 3 nM
selectivity index toward EGFR^T790M protein over wild-type EGFR [7]: 8 fold
IC50 [7]: 9.2 ± 2 nM
IC50 [8]: 1120 ± 10 nM
IC50 [9]: 74 ± 5 nM
viability at 96 h, 50 µM [10]: 91%

CCOC(=O)c1[nH]c2ccc(Cl)cc2c1CNCCc1cccc(N2CCCCC2)c1 [Compound 3e, Ethyl 5-chloro-3-((3-(piperidin-1-yl)phenethylamino)methyl)-1H-indole-2-carboxylate]
IC50 [1]: 30 ± 3 nM
IC50 [2]: 27 ± 2 nM
IC50 [3]: 30 ± 3 nM
GI50 [4]: 29 nM
IC50 [5]: 35 ± 3 nM
IC50 [6]: 29 ± 3 nM
selectivity index toward EGFR^T790M protein over wild-type EGFR [7]: 8 fold
IC50 [7]: 8.6 ± 2 nM
IC50 [8]: 960 ± 10 nM
IC50 [9]: 68 ± 5 nM
fold more potent than erlotinib (EGFR IC50) ([9]; relative to erlotinib IC50 = 80 nM): 1.2 fold
viability at 96 h, 50 µM [10]: 92%

CCc1ccc(Cn2cc(-c3cc(-c4ccc(Br)cc4)nc(N)n3)c3ccccc32)cc1 [Compound II]
IC50 [11]: 99 nM
IC50 [12]: 595 nM
IC50 [13]: 94 nM

Cc1c2n(c3ccc(Cl)cc13)C(=O)CN(CCc1ccc(N3CCOCC3)cc1)C2=O [Compound VI]
IC50 [14]: 150 nM
IC50 [15]: 80 nM
GI50 [16]: 1110 nM
